Reference: article PMC4901301 (Scientific Reports, 2016)

What follows are compounds tested on Mtb H37Rv thyX Tet-OFF conditional knockdown mutant.
Format: cell-based, Mycobacterium tuberculosis
In the case of `O=C1C=C(Cc2ccc(F)cc2)C(=O)c2ccccc21` [Compound D4], the “MIC90 shift (increase in potency) upon ThyX depletion” value is reported as “no shift”. `COc1ccc(CC2=CC(=O)c3ccccc3C2=O)cc1` [Compound D5] was tested, and the “MIC90 shift (increase in potency) upon ThyX depletion” value was “no shift”. With `CC(=O)N(C1=C(Cl)C(=O)c2ccccc2C1=O)c1cccc(F)c1` [Compound E10] the “MIC90 shift (increase in potency) upon ThyX depletion” value was “no shift”. `O=C1C(Cl)=C(N2CCN(C(=O)c3ccc(F)cc3)CC2)C(=O)c2ccccc21` [Compound F1] was tested, and the “MIC90 shift (increase in potency) upon ThyX depletion” value was “no shift”. In the case of `CCS(=O)(=O)N1CCN(C2=C(Cl)C(=O)c3ccccc3C2=O)CC1` [Compound F2], the “MIC90 shift (increase in potency) upon ThyX depletion” value is reported as ~ 2 fold.
